Laboratory results as given in patent US20260355120A1, “"GOOD" BUFFER-BASED CATIONIC LIPIDS FOR NUCLEIC ACID DELIVERY” (SANOFI VACCINES US INC., priority 2023, published 2026).

Tested on: hEPO
Assay: Delivery of hEPO mRNA by intramuscular administration of lipid nanoparticles; serum hEPO by ELISA
Assay type: in vivo, female BALB/cJ mice
Conditions: single IM 0.1 μg/An hEPO mRNA LNP, lipid formulation 1 (N/P 4), MC3 and SM-102 in formulation 2 (N/P 3); for hEPO 6 Hr Mean: 6 h post injection; for hEPO 24 Hr Mean: 24 h post injection
Text: The lipid nanoparticles in the examples of the present invention were formulated using Process A of WO 2018/089801 (see, e.g., Example 1 and FIG. 1 of WO 2018/089801). Process A (“A”) relates to a conventional method of encapsulating mRNA by mixing mRNA with a mixture of lipids, without first pre-forming the lipids into lipid nanoparticles. In an exemplary process, an ethanolic solution of a mixture of lipids (cationic lipid, phosphatidylethanolamine, cholesterol, and polyethylene glycol-lipid) at a fixed lipid to mRNA ratio were combined with an aqueous buffered solution of target mRNA at an acidic pH under controlled conditions to yield a suspension of uniform LNPs. After ultrafiltration and diafiltration into a suitable diluent system, the resulting nanoparticle suspensions were diluted to final concentration, filtered, and stored frozen at −80 °C until use.
Lipid nanoparticle formulations of Table C were prepared by Process A. All of the lipid nanoparticle formulations comprised hEPO mRNA and the different lipids (Cationic Lipid: DMG-PEG2000: Cholesterol: DOPE/DSPC) in the mol % ratios specified in Table C.
The cationic lipids of the present invention and lipid OF-02 were evaluated with lipid nanoparticle formulation 1. MC3 and SM-102 were evaluated with lipid nanoparticle formulation 2, which is a typical formulation for those lipids.
In summary, lipid screening studies were conducted with female BALB/cJ mice 6-8 weeks of age (Jax #000651). Mice were dosed with 0.1 μg in 30 μL of LNPs by a single intramuscular (IM) injection into the gastrocnemius leg muscle. Blood samples were taken 6 and 24 hours post injection and hEPO levels were measured in the blood serum of the mice using an ELISA assay according to the manufacture's protocol (R&D systems, Cat #DEP-00). WO2022/099003 A1 also describes an in vivo assay for intramuscular administration (e.g. on page 46, paragraph [00206]).

SMILES | hEPO 6 Hr Mean | hEPO 24 Hr Mean
CCCCCCCC/C=C\CCCCCCCCN(CCCCCCCC(=O)OC(CCCCCCCC)CCCCCCCC)CCCCSSCCCCN1CCN(CCOC(=O)CCCN(CC(O)CCCCCCCCCC)CC(O)CCCCCCCCCC)CC1 (stereo not shown) [Compound 1] | 11 ng/mL | 9.5 ng/mL
CCCCCCCCCCCOC(=O)CCCCCN(CCCCCCCC(=O)OC(CCCCCCCC)CCCCCCCC)CCCCSSCCCCN1CCN(CCOC(=O)CCCN(CC(O)CCCCCCCCCC)CC(O)CCCCCCCCCC)CC1 (stereo not shown) [Compound 2] | 35.4 ng/mL | 29.2 ng/mL
CCCCCC/C=C\COC(=O)CCCCCCCN(CCCCCCCC(=O)OC(CCCCCCCC)CCCCCCCC)CCCCSSCCCCN1CCN(CCOC(=O)CCCN(CC(O)CCCCCCCCCC)CC(O)CCCCCCCCCC)CC1 (stereo not shown) [Compound 3] | 20.5 ng/mL | 19.3 ng/mL
CCCCC/C=C\C/C=C\CCCCCCCCN(CCCCCCCC(=O)OC(CCCCCCCC)CCCCCCCC)CCCCSSCCCCN1CCN(CCOC(=O)CCCN(CC(O)CCCCCCCCCC)CC(O)CCCCCCCCCC)CC1 (stereo not shown) [Compound 4] | 18.8 ng/mL | 12.1 ng/mL
CCCCCC/C=C\COC(=O)CCCCCC(O)CN(CCCCSSCCCCN1CCN(CCOC(=O)CCCN(CC(O)CCCCCCCCCC)CC(O)CCCCCCCCCC)CC1)CC(O)CCCCCC(=O)OC(CCCCCCCC)CCCCCCCC (stereo not shown) [Compound 5] | 35 ng/mL | 18.7 ng/mL
CCCCCCCC/C=C\CCCCCCC(O)CN(CCCCSSCCCCN1CCN(CCOC(=O)CCCN(CC(O)CCCCCCCCCC)CC(O)CCCCCCCCCC)CC1)CC(O)CCCCCC(=O)OC(CCCCCCCC)CCCCCCCC (stereo not shown) [Compound 6] | 34.7 ng/mL | 18.4 ng/mL
CCCCC/C=C\C/C=C\CCCCCCC(O)CN(CCCCSSCCCCN1CCN(CCOC(=O)CCCN(CC(O)CCCCCCCCCC)CC(O)CCCCCCCCCC)CC1)CC(O)CCCCCC(=O)OC(CCCCCCCC)CCCCCCCC (stereo not shown) [Compound 7] | 31.4 ng/mL | 25.8 ng/mL
CCCCCCCCCCCOC(=O)CCCC(O)CN(CCCCSSCCCCN1CCN(CCOC(=O)CCCN(CC(O)CCCCCCCCCC)CC(O)CCCCCCCCCC)CC1)CC(O)CCCCCC(=O)OC(CCCCCCCC)CCCCCCCC (stereo not shown) [Compound 8] | 41.8 ng/mL | 33.3 ng/mL
CCCCCCCCCCCOC(=O)CCCCCN(CCCCCCCC(=O)OC(CCCCCCCC)CCCCCCCC)CCCC(=O)OCCN1CCN(CCCCSSCCCN(CC(O)CCCCC(=O)OCC(CC)CC)CC(O)CCCCC(=O)OCC(CC)CC)CC1 (stereo not shown) [Compound 9] | 24.3 ng/mL | 15.7 ng/mL
CCCCCCCCCCCOC(=O)CCCCCN(CCCCCCCC(=O)OC(CCCCCCCC)CCCCCCCC)CCCC(=O)OCCN1CCN(CCCCSSCCCCN(CC(O)CCCCCC(=O)OC(CCCCCCCC)CCCCCCCC)CC2CCCC(=O)O2)CC1 (stereo not shown) [Compound 10] | 19.6 ng/mL | 7.7 ng/mL
CCCCCCCCC(CCCCCCCC)OC(=O)CCCCCC(O)CN(CCCC(=O)OCCN1CCN(CCCCSSCCCN(CC(O)CCCCC(=O)OCC(CC)CC)CC(O)CCCCC(=O)OCC(CC)CC)CC1)CC1CCCC(=O)O1 (stereo not shown) [Compound 11] | 18.7 ng/mL | 10.1 ng/mL
CCCCCCCCCCCOC(=O)CCCC(O)CN(CCCC(=O)OCCN1CCN(CCCCSSCCCN(CC(O)CCCCC(=O)OCC(CC)CC)CC(O)CCCCC(=O)OCC(CC)CC)CC1)CC(O)CCCCCC(=O)OC(CCCCCCCC)CCCCCCCC (stereo not shown) [Compound 12] | 37.4 ng/mL | 21 ng/mL
CCCCCCCCCCCOC(=O)CCCCCN(CCCCCCCC(=O)OC(CCCCCCCC)CCCCCCCC)CCCC(=O)OCCN1CCN(CCCCSSCCCCN(CC(O)CCCCCC(=O)OC(CCCCCCCC)CCCCCCCC)CC(O)CCCC(=O)OCCCCCCCCCCC)CC1 (stereo not shown) [Compound 13] | 29.5 ng/mL | 13.8 ng/mL
CCCCCCCCCCCOC(=O)CCCC(O)CN(CCCCSSCCCCN1CCN(CCOC(=O)CCCN(CC(O)CCCCCC(=O)OC(CCCCCCCC)CCCCCCCC)CC(O)CCCC(=O)OCCCCCCCCCCC)CC1)CC(O)CCCCCC(=O)OC(CCCCCCCC)CCCCCCCC (stereo not shown) [Compound 14] | 26.4 ng/mL | 12.8 ng/mL
CCCCCCCCCCC(O)CN(CCCC(=O)OCCN1CCN(CCCCSSCCCCN(CC(O)CCCCC(=O)OCC(CC)CC)CC(O)CCCCC(=O)OCC(CC)CC)CC1)CC(O)CCCCCCCCCC (stereo not shown) [Compound 15] | 36 ng/mL | 22.8 ng/mL
CCCCCCCCCCC(O)CN(CCCC(=O)OCCN1CCN(CCCCSSCCCN(CC(O)CCCCC(=O)OCC(CC)CC)CC(O)CCCCC(=O)OCC(CC)CC)CC1)CC(O)CCCCCCCCCC (stereo not shown) [Compound 16] | 32.4 ng/mL | 18.7 ng/mL
CCCCCCCCCCC(O)CN(CCCC(=O)OCCN1CCN(CCCCSSCCCCN(CC(O)CCCC(=O)OC(CC)CC)CC(O)CCCC(=O)OC(CC)CC)CC1)CC(O)CCCCCCCCCC (stereo not shown) [Compound 17] | 19.7 ng/mL | 10.4 ng/mL
CCCCCCCCCCC(O)CN(CCCC(=O)OCCN1CCN(CCCCSSCCCN(CC(O)CCCC(=O)OC(CC)CC)CC(O)CCCC(=O)OC(CC)CC)CC1)CC(O)CCCCCCCCCC (stereo not shown) [Compound 18] | 18.2 ng/mL | 9.2 ng/mL
CCCCC/C=C\C/C=C\CCCCCCCCC(CCCCCCCC/C=C\C/C=C\CCCCC)OC(=O)CCCN(C)C [MC3, reference compound] | 3.9 ng/mL | 2.9 ng/mL
CCCCCCCCCCCOC(=O)CCCCCN(CCO)CCCCCCCC(=O)OC(CCCCCCCC)CCCCCCCC [SM102, SM-102, reference compound] | 12.5 ng/mL | 13.3 ng/mL
